These results are taken from PubChem BioAssay AID2060610 (Molecular Pharmacology Branch, DTP, NCI, 2025).

pIC50: −log10 of the molar value. “And” between values parts separate entries of the source, which are not always exact repeats. Identical values can stand only once.

Usually pIC50 stands for the IC50 on a negative log10 scale, so that one unit is a factor of ten. As a reminder, the viability, T/C is the ratio of treated to control.

In the test the test system is 616215-338-R-J1-PDC complex spheroids, viability % test/control. Briefly: Anticancer human tumor 616215-338-R-J1-PDC patient-derived colon adenocarcinoma cell line growth inhibition [CLK]. Conditions: for viability, T/C: stronger effect = lower value. Summed up: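 Patient-derived tumor cells grown as complex spheroids with HUVEC endothelial cells and mesenchymal stem cells, treated with drug combinations. Concentrations descend in half-log steps from near clinical Cmax, or from 10 microM if Cmax unknown.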
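Note: spheroids exposed to agents for 7 days.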
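Throughout, for viability, T/C: 100% = DMSO vehicle wells.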

As for `COc1ccc([C@@H](O)c2cc(-c3ncnc4cc(N5CCOCC5)ccc34)c(F)cc2Cl)nn1` + CNC(=O)c1ccc(Nc2nc(OC3CCCC3)c3c(-c4ccc5nc(C)oc5c4)c[nH]c3n2)c(OC)c1, the negative-log IC50 (pIC50) (curve of first compound, second compound 0.0316 µM) is under 5.00; the negative-log IC50 (pIC50) (curve of first compound, second compound 0.1 µM) is over 7.50; the pIC50 (curve of first compound, second compound 0.316 µM) was over 7.50; the negative logarithm of the IC50 (pIC50) (curve of first compound, second compound 1 µM) was over 7.50; the pIC50 (curve of first compound, second compound 3.16 µM) was over 7.50; the pIC50 (curve of first compound, second compound 10 µM) is over 7.50. Besides, the viability, T/C was 90.8% (second compound 0.0316 µM, first compound 0.0316 µM); 103% (second compound 0.0316 µM, first compound 0.1 µM); 99.1% (second compound 0.0316 µM, first compound 0.316 µM); 100% (second compound 0.0316 µM, first compound 1 µM); 114% (second compound 0.0316 µM, first compound 3.16 µM); 72.5% (second compound 0.0316 µM, first compound 10 µM). Moreover, the viability, T/C was 45.1% (second compound 0.1 µM, first compound 0.0316 µM); 45.4% (second compound 0.1 µM, first compound 0.1 µM); 43.4% (second compound 0.1 µM, first compound 0.316 µM); 45.3% (second compound 0.1 µM, first compound 1 µM); 43.2% (second compound 0.1 µM, first compound 3.16 µM); 28.8% (second compound 0.1 µM, first compound 10 µM). In addition, the viability, T/C runs as follows: (second compound 0.316 µM, first compound 0.0316 µM) 46.3%; (second compound 0.316 µM, first compound 0.1 µM) 43.5%; (second compound 0.316 µM, first compound 0.316 µM) 39.4%; (second compound 0.316 µM, first compound 1 µM) 37.9%; (second compound 0.316 µM, first compound 3.16 µM) 32.4%; (second compound 0.316 µM, first compound 10 µM) 28%. In addition, the viability, T/C was 40.1% (second compound 1 µM, first compound 0.0316 µM); 39.9% (second compound 1 µM, first compound 0.1 µM); 38.9% (second compound 1 µM, first compound 0.316 µM); 38.8% (second compound 1 µM, first compound 1 µM); 32.2% (second compound 1 µM, first compound 3.16 µM); 22.6% (second compound 1 µM, first compound 10 µM). For the same molecule, the viability, T/C was 49.7% (second compound 3.16 µM, first compound 0.0316 µM); 43.7% (second compound 3.16 µM, first compound 0.1 µM); 41% (second compound 3.16 µM, first compound 0.316 µM); 32.6% (second compound 3.16 µM, first compound 1 µM); 30.6% (second compound 3.16 µM, first compound 3.16 µM); 20.8% (second compound 3.16 µM, first compound 10 µM). Moreover, the viability, T/C is 49.1% (second compound 10 µM, first compound 0.0316 µM); 41.5% (second compound 10 µM, first compound 0.1 µM); 38.8% (second compound 10 µM, first compound 0.316 µM); 37.1% (second compound 10 µM, first compound 1 µM); 27.2% (second compound 10 µM, first compound 3.16 µM); 19.1% (second compound 10 µM, first compound 10 µM).
On to `CC1COCCN1c1cc(C2(S(C)(=N)=O)CC2)nc(-c2ccnc3[nH]ccc23)n1` (stereo unspecified), for which the viability, T/C reads like this: (compound 0.0316 µM) 94.9% and 102%; (compound 0.1 µM) 107% and 96.5%; (compound 0.316 µM) 97.7% and 96.1%; (compound 1 µM) 99.8% and 94.2%; (compound 3.16 µM) 105% and 106%; (compound 10 µM) 78.6% and 92.2%. Further, the pIC50 (curve of compound) was under 5.00.
Consider `CC(CO)NC(=O)c1cc(-c2ccc(Cl)cc2)nn(-c2cnn(C)c2)c1=O` (stereo unspecified), for which the viability, T/C is, setting by setting: (compound 0.0316 µM) 90.7% and 94.5%; (compound 0.1 µM) 95.2% and 99.6%; (compound 0.316 µM) 101% and 96%; (compound 1 µM) 102% and 99.1%; (compound 3.16 µM) 110% and 95%; (compound 10 µM) 103% and 106%. Also, the negative-log IC50 (pIC50) (curve of compound) is under 5.00.
